Results reported in BindingDB's records for doi:10.1016/j.bmc.2007.03.063 (Zhengzhou University, 2007).

Biological target: Maltase-glucoamylase (Homo sapiens, UniProt O43451)
Assay: Inhibition of alpha-glucosidase

Chain of Maltase-glucoamylase (O43451 whole entry): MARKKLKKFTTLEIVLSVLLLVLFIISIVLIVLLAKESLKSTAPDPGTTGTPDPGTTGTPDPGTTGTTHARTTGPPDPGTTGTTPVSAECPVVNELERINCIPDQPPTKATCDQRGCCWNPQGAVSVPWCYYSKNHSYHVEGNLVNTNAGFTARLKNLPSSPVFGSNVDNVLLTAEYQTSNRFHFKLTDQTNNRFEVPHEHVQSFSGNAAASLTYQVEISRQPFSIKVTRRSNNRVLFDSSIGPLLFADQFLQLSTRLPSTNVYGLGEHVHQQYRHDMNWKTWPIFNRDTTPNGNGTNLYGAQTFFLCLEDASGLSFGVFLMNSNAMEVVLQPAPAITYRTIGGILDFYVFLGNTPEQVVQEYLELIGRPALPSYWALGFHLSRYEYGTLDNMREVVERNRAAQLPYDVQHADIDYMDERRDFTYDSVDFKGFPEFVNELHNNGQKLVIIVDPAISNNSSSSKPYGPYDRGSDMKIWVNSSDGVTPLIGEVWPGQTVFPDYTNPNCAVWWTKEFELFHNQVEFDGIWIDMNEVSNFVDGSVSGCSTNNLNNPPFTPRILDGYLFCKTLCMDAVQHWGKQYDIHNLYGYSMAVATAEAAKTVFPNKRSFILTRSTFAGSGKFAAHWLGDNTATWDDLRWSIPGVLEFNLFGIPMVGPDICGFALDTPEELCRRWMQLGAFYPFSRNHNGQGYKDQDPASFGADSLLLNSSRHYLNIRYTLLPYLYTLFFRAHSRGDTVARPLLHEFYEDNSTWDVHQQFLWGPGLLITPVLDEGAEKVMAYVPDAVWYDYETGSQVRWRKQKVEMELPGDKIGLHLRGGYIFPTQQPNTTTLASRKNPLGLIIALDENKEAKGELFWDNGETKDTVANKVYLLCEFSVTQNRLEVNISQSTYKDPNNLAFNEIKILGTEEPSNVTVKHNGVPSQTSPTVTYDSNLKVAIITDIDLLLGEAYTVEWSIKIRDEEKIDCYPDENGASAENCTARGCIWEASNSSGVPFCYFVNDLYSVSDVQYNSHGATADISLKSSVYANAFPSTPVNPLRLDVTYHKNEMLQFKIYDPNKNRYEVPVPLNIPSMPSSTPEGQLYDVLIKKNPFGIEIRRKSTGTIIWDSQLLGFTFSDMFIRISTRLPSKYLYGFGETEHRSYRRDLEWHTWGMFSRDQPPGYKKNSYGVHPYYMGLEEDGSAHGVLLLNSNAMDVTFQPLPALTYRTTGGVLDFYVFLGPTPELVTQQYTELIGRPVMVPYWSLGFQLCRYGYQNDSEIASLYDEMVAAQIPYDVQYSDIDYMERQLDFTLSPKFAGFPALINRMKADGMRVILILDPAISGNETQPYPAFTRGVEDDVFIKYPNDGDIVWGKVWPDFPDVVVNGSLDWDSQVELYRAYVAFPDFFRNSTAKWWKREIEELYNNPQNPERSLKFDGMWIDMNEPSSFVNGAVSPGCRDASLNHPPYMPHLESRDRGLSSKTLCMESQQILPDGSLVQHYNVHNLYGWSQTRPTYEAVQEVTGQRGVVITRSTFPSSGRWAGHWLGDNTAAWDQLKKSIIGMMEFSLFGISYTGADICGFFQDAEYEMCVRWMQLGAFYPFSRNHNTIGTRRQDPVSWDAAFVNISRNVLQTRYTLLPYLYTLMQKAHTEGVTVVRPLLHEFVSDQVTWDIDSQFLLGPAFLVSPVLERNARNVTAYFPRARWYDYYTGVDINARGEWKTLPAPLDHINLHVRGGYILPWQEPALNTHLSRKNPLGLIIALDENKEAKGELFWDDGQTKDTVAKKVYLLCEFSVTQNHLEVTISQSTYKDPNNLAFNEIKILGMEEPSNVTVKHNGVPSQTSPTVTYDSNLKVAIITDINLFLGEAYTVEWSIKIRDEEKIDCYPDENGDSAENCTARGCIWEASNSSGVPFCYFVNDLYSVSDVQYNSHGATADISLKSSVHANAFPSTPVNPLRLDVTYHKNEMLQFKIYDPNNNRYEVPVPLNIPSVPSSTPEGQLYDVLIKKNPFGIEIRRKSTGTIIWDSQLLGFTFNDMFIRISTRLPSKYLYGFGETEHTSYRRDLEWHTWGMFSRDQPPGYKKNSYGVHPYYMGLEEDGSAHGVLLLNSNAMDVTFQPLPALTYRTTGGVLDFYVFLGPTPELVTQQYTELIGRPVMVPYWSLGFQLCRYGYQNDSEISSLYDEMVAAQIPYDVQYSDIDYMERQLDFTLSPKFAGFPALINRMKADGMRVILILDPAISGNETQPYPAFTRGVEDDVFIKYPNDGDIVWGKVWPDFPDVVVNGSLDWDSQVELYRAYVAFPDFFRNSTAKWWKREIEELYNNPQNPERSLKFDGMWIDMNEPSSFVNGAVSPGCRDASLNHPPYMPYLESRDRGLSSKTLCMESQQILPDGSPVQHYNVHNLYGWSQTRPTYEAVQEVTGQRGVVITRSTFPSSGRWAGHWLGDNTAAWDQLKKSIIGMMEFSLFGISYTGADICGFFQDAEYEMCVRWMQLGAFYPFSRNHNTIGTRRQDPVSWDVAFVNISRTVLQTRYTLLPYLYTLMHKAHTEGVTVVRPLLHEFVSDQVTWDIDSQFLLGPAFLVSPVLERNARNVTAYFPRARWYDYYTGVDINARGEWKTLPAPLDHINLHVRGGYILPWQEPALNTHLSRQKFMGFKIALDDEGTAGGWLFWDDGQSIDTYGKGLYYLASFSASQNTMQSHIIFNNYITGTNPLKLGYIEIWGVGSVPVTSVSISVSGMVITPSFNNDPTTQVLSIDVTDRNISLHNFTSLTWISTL

Row | IC50 | SMILES
1 | 28 µM | C=C1CC[C@@H]2[C@](C)(COC(=O)c3cccnc3)[C@H](OC(=O)c3cccnc3)CC[C@@]2(C)[C@@H]1/C=C/C1=CC(=C\C(C)=C\CCC/C=C/C)/OC1=O [14-deoxy-11,12-didehydro-3,19-dinicotinate-15-(2,8-dimethanyl-2,7-octanedieneylidene)-andrographolide]
2 | 36 µM | C=C1CC[C@@H]2[C@](C)(COC(=O)c3cccnc3)[C@H](OC(=O)c3cccnc3)CC[C@@]2(C)[C@@H]1/C=C/C1=CC(=C/c2ccco2)/OC1=O [14-deoxy-11,12-didehydro-3,19-dinicotinate-15-(2-furanmethanylidene)-andrographolide]
3 | 25 µM | C=C1CC[C@@H]2[C@](C)(COC(=O)c3cccnc3)[C@H](OC(=O)c3cccnc3)CC[C@@]2(C)[C@@H]1/C=C/C1=CC(=C\c2ccc(N(C)C)cc2)/OC1=O [14-deoxy-11,12-didehydro-3,19-dinicotinate-15-(p(-dimethylamino)benzylidene)-andrographolide]
4 | 11 µM | C=C1CC[C@@H]2[C@](C)(COC(=O)c3cccnc3)[C@H](OC(=O)c3cccnc3)CC[C@@]2(C)[C@@H]1/C=C/C1=CC(=C\c2ccc(OC)cc2)/OC1=O [14-deoxy-11,12-didehydro-3,19-dinicotinate-15-p-methoxylbenzylidene andrographolide]
5 | 100 µM | C=C1CC[C@@H]2[C@](C)(CO)[C@H](O)CC[C@@]2(C)[C@@H]1/C=C/C1=CC(=C/c2ccco2)/OC1=O [14-deoxy-11,12-didehydro-15-(-2-furanmethanylidene)-andrographolide]
6 | 84 µM | C=C1CC[C@@H]2[C@](C)(CO)[C@H](O)CC[C@@]2(C)[C@@H]1/C=C/C1=CC(=C/c2cc(OC)c(OC)cc2OC)/OC1=O [14-deoxy-11,12-didehydro-15-trimethoxylbenzylideneandrographolide]
7 | 70 µM | C=C1CC[C@@H]2[C@](C)(CO)[C@H](O)CC[C@@]2(C)[C@@H]1/C=C/C1=CC(=C/c2ccc(N(C)C)cc2)/OC1=O [14-deoxy-15-(p-(dimethanylamino)-benzylidene)-11,12-didehydroandrographolide]
8 | 82 µM | C=C1CC[C@@H]2[C@](C)(CO)[C@H](O)CC[C@@]2(C)[C@@H]1/C=C/C1=CC(=C/c2ccc3c(c2)OCO3)/OC1=O [15-(benzo[1,3]dioxole-5-methanylidene)-14-deoxy-11,12-didehydroandrographolide]
9 | 14 µM | C=C1CC[C@@H]2[C@](C)(COC(=O)c3cccnc3)[C@H](OC(=O)c3cccnc3)CC[C@@]2(C)[C@@H]1/C=C/C1=CC(=C\c2cccc(Br)c2)/OC1=O [15-(m-bromoacylbenzylidene)-14-deoxy-11,12-didehydro-3,19-dinicotinateandrographolide]
10 | 6 µM | C=C1CC[C@@H]2[C@](C)(COC(=O)c3cccnc3)[C@H](OC(=O)c3cccnc3)CC[C@@]2(C)[C@@H]1/C=C/C1=CC(=C\c2ccc(Cl)cc2)/OC1=O [15-(p-chlorinebenzylidene)-14-deoxy-11,12-didehydro-3,19-dinicotinateandrographolide]
11 | 16 µM | C=C1CC[C@@H]2[C@](C)(COC(=O)c3cccnc3)[C@H](OC(=O)c3cccnc3)CC[C@@]2(C)[C@@H]1/C=C/C1=CC(=C\c2ccccc2)/OC1=O [15-benzylidene14-deoxy-11,12-didehydro-3,19-dinicotinateandrographolide]
12 | 58 µM | C=C1CC[C@@H]2[C@](C)(CO)[C@H](O)CC[C@@]2(C)[C@@H]1/C=C/C1=CC(=C/c2ccccc2)/OC1=O [15-benzylidene-14-deoxy-11,12-didehydroandrographolide]
